Consider 42 compounds from US20140343049A1, “DIHYDROFURAN DERIVATIVES AS INSECTICIDAL COMPOUNDS” (SYNGENTA PARTICIPATIONS AG, priority 2011, published 2014).

Common to all, as to assay type: in vivo
In assay [1] the test system is Spodoptera littoralis (Egyptian cotton leafworm). Kind of assay: Spodoptera littoralis cotton leaf disc spray test. As to conditions: foliar, 72 h, cotton leaf discs sprayed at 200 ppm, 5 L1 larvae, mortality, feeding behavior, growth regulation 3 days after treatment. An excerpt:
Cotton leaf discs were placed on agar in a 24-well microtiter plate and sprayed with test solutions at an application rate of 200 ppm. After drying, the leaf discs were infested with 5 L1 larvae. The samples were checked for mortality, feeding behavior, and growth regulation 3 days after treatment (DAT).

In assay [2] the test system is Plutella xylostella (diamond back moth). Kind of assay: Plutella xylostella L2 larvae test on artificial diet. As to conditions: 144 h, 200 ppm (concentration in well 18 ppm), 6 days, larval mortality and growth regulation. Here is the method:
24-well microtiter plate (MTP) with artificial diet was treated with test solutions at an application rate of 200 ppm (concentration in well 18 ppm) by pipetting. After drying, the MTPs were infested with L2 larvae (7-12 per well). After an incubation period of 6 days, samples were checked for larval mortality and growth regulation.

Assay [3] relates to Heliothis virescens (tobacco budworm). Kind of assay: Heliothis virescens egg test on artificial diet. As to conditions: 96 h, 200 ppm (concentration in well 18 ppm), eggs 0-24 h old, 4 days, egg mortality, larval mortality, growth regulation. On the procedure: Eggs (0-24 h old) were placed in 24-well microtiter plate on artificial diet and treated with test solutions at an application rate of 200 ppm (concentration in well 18 ppm) by pipetting. After an incubation period of 4 days, samples were checked for egg mortality, larval mortality, and growth regulation.

The subject of assay [4] is Diabrotica balteata (corn root worm). Kind of assay: Diabrotica balteata L2 larvae test on artificial diet. As to conditions: 120 h, 200 ppm (concentration in well 18 ppm), 5 days, larval mortality and growth regulation. On the procedure: A 24-well microtiter plate (MTP) with artificial diet was treated with test solutions at an application rate of 200 ppm (concentration in well 18 ppm) by pipetting. After drying, the MTPs were infested with L2 larvae (6-10 per well). After an incubation period of 5 days, samples were checked for larval mortality and growth regulation.
A 24-well microtiter plate (MTP) with artificial diet was treated with test solutions at an application rate of 12.5 ppm (concentration in well 18 ppm) by pipetting. After drying, the MTP's were infested with L2 larvae (6-10 per well). After an incubation period of 5 days, samples were checked for larval mortality and growth regulation.

On to `CCCCNC(=O)c1ccc(C2=CC(c3cc(Cl)cc(Cl)c3)(C(F)(F)F)OC2)cc1C` (stereo not shown) [Compound A5], for which the pest or weed control at 200 ppm in assay [1], in assay [2], in assay [3] and in assay [4] was ≥ 80% throughout.

Consider `COCC(C)NC(=O)c1ccc(C2=CC(c3cc(Cl)cc(Cl)c3)(C(F)(F)F)OC2)cc1C` (stereo not shown) [Compound A6], for which the pest or weed control at 200 ppm in assay [1], in assay [2], in assay [3] and in assay [4] was ≥ 80% in each case.

As for `Cc1cc(C2=CC(c3cc(Cl)cc(Cl)c3)(C(F)(F)F)OC2)ccc1C(=O)NCc1ccccc1` (stereo not shown) [Compound A8], the pest or weed control at 200 ppm in assay [4] was ≥ 80%. `Cc1cc(C2=CC(c3cc(Cl)cc(Cl)c3)(C(F)(F)F)OC2)ccc1C(=O)NC1CCCCC1C` (stereo not shown) [Compound A32]: the pest or weed control at 200 ppm in assay [2] and in assay [4] was ≥ 80% in each case. As for `Cc1cc(C2=CC(c3cc(Cl)cc(Cl)c3)(C(F)(F)F)OC2)ccc1C(=O)NCCc1ccccc1` (stereo not shown) [Compound A39], the pest or weed control at 200 ppm in assay [2], in assay [3] and in assay [4] was ≥ 80% in each case. Turning to `Cc1cc(C2=CC(c3cc(Cl)cc(Cl)c3)(C(F)(F)F)OC2)ccc1C(=O)NCCc1cccs1` (stereo not shown) [Compound A41], the pest or weed control at 200 ppm in assay [2] and in assay [4] was ≥ 80% each time. For `Cc1cc(C2=CC(c3cc(Cl)cc(Cl)c3)(C(F)(F)F)OC2)ccc1C(=O)NCCOc1ccccc1` (stereo not shown) [Compound A42], the pest or weed control at 200 ppm in assay [1], in assay [3] and in assay [4] was ≥ 80% each time. Take `Cc1cc(C2=CC(c3cc(Cl)cc(Cl)c3)(C(F)(F)F)OC2)ccc1C(=O)NCc1ccccc1C(F)(F)F` (stereo not shown) [Compound A48]: the pest or weed control at 200 ppm in assay [4] was ≥ 80%. Consider `Cc1cc(C2=CC(c3cc(Cl)cc(Cl)c3)(C(F)(F)F)OC2)ccc1C(=O)NCc1ccccc1N1CCCCC1` (stereo not shown) [Compound A50], for which the pest or weed control at 200 ppm in assay [4] is ≥ 80%. For `Cc1cc(C2=CC(c3cc(Cl)cc(Cl)c3)(C(F)(F)F)OC2)ccc1C(=O)NC1CCN(Cc2ccccc2)C1` (stereo not shown) [Compound A53], the pest or weed control at 200 ppm in assay [1] and in assay [4] was ≥ 80% each time. For `Cc1cc(C2=CC(c3cc(Cl)cc(Cl)c3)(C(F)(F)F)OC2)ccc1C(=O)NCCN1CCN(Cc2ccccc2)CC1` (stereo not shown) [Compound A54], the pest or weed control at 200 ppm in assay [3] and in assay [4] was ≥ 80% each time.

Take `Cc1cc(C2=CC(c3cc(Cl)cc(Cl)c3)(C(F)(F)F)OC2)ccc1C(=O)Nc1ccc(-n2cccc2)cc1` (stereo not shown) [Compound A61]: in assay [4], the pest or weed control at 200 ppm is ≥ 80%. On the same count and under the same terms, the same measure for `Cc1cc(C2=CC(c3cc(Cl)cc(Cl)c3)(C(F)(F)F)OC2)ccc1C(=O)Nc1ccc2c(C)cc(=O)oc2c1` (stereo not shown) [Compound A65]: ≥ 80%.

For the compound `Cc1cc(C2=CC(c3cc(Cl)cc(Cl)c3)(C(F)(F)F)OC2)ccc1C(=O)Nc1ccc(S(=O)(=O)N(C)C)cc1` (stereo not shown) [Compound A66], the pest or weed control at 200 ppm in assay [3] and in assay [4] was ≥ 80% throughout. `Cc1cc(NC(=O)c2ccc(C3=CC(c4cc(Cl)cc(Cl)c4)(C(F)(F)F)OC3)cc2C)n(C)n1` (stereo not shown) [Compound A67]: the pest or weed control at 200 ppm in assay [1], in assay [2] and in assay [3] was ≥ 80% in each case. Turning to `Cc1cc(O)nc(NC(=O)c2ccc(C3=CC(c4cc(Cl)cc(Cl)c4)(C(F)(F)F)OC3)cc2C)n1` (stereo not shown) [Compound A69], the pest or weed control at 200 ppm in assay [2], in assay [3] and in assay [4] was ≥ 80% throughout.

As for `Cc1cc(C2=CC(c3cc(Cl)cc(Cl)c3)(C(F)(F)F)OC2)ccc1C(=O)Nc1ncnc2[nH]cnc12` (stereo not shown) [Compound A72], the pest or weed control at 200 ppm in assay [1] was ≥ 80%. As to `Cc1nnc(NC(=O)c2ccc(C3=CC(c4cc(Cl)cc(Cl)c4)(C(F)(F)F)OC3)cc2C)s1` (stereo not shown) [Compound A75], the pest or weed control at 200 ppm in assay [4] was ≥ 80%.

Take `O=C(NCC(F)(F)F)c1ccc(C2=CC(c3cc(Cl)cc(Cl)c3)(C(F)(F)F)OC2)nc1` (stereo not shown) [Compound B1]: in assay [2], the pest or weed control at 200 ppm is ≥ 80%. Consider `CCNC(=O)c1ccc(C2=CC(c3cc(Cl)cc(Cl)c3)(C(F)(F)F)OC2)nc1` (stereo not shown) [Compound B2], for which the pest or weed control at 200 ppm in assay [4] is ≥ 80%. Regarding `O=C(CNC(=O)c1ccc(C2=CC(c3cc(Cl)cc(Cl)c3)(C(F)(F)F)OC2)nc1)NCC(F)(F)F` (stereo not shown) [Compound B5], in assay [3], the pest or weed control at 200 ppm is ≥ 80%.

As to `O=C(NCCC(F)(F)F)c1ccc(C2=CC(c3cc(Cl)cc(Cl)c3)(C(F)(F)F)OC2)nc1` (stereo not shown) [Compound B6], the pest or weed control at 200 ppm in assay [4] was ≥ 80%.

In the case of `CCC(C)NC(=O)c1ccc(C2=CC(c3cc(Cl)cc(Cl)c3)(C(F)(F)F)OC2)nc1` (stereo not shown) [Compound B7], in assay [2], the pest or weed control at 200 ppm is ≥ 80%. `O=C(NCC1CCCO1)c1ccc(C2=CC(c3cc(Cl)cc(Cl)c3)(C(F)(F)F)OC2)nc1` (stereo not shown) [Compound B8]: in assay [2], the pest or weed control at 200 ppm is ≥ 80%.

Turning to `COc1ccc(CNC(=O)c2ccc(C3=CC(c4cc(Cl)cc(Cl)c4)(C(F)(F)F)OC3)nc2)cc1` (stereo not shown) [Compound B12], in assay [4], the pest or weed control at 200 ppm was ≥ 80%. On to `O=C(NCc1ccc(Cl)nc1)c1ccc(C2=CC(c3cc(Cl)cc(Cl)c3)(C(F)(F)F)OC2)nc1` (stereo not shown) [Compound B14], for which the pest or weed control at 200 ppm in assay [3] is ≥ 80%. Turning to `CC1(NC(=O)c2ccc(C3=CC(c4cc(Cl)cc(Cl)c4)(C(F)(F)F)OC3)nc2)CSC1` (stereo not shown) [Compound B19], the pest or weed control at 200 ppm in assay [4] is ≥ 80%. Regarding `O=C(NC1CCC1)c1ccc(C2=CC(c3cc(Cl)cc(Cl)c3)(C(F)(F)F)OC2)nc1` (stereo not shown) [Compound B23], the pest or weed control at 200 ppm in assay [2] is ≥ 80%.

For `Cc1nc(C2=CC(c3cc(Cl)cc(Cl)c3)(C(F)(F)F)OC2)ccc1C(=O)NCCC(F)(F)F` (stereo not shown) [Compound C6], the pest or weed control at 200 ppm in assay [1], in assay [2] and in assay [4] was ≥ 80% each time. On to `Cc1nc(C2=CC(c3cc(Cl)cc(Cl)c3)(C(F)(F)F)OC2)ccc1C(=O)NCC1CCCO1` (stereo not shown) [Compound C8], for which the pest or weed control at 200 ppm in assay [1], in assay [3] and in assay [4] was ≥ 80% throughout. For `Cc1nc(C2=CC(c3cc(Cl)cc(Cl)c3)(C(F)(F)F)OC2)ccc1C(=O)Nc1cccc(F)c1` (stereo not shown) [Compound C15], the pest or weed control at 200 ppm in assay [1], in assay [2] and in assay [3] was ≥ 80% each time. With `Cc1cc(NC(=O)c2ccc(C3=CC(c4cc(Cl)cc(Cl)c4)(C(F)(F)F)OC3)nc2C)n(C)n1` (stereo not shown) [Compound C16], the pest or weed control at 200 ppm in assay [2] and in assay [3] was ≥ 80% each time.

`CSCC(C)(C)NC(=O)c1ccc(C2=CC(c3cc(Cl)cc(Cl)c3)(C(F)(F)F)OC2)nc1C` (stereo not shown) [Compound C18]: the pest or weed control at 200 ppm in assay [1] and in assay [4] was ≥ 80% throughout. Take `CCCCNC(=O)c1ccc(C2=CC(c3cc(Cl)cc(Cl)c3)(C(F)(F)F)OC2=O)cc1C` (stereo not shown) [Compound E3]: the pest or weed control at 200 ppm in assay [2] is ≥ 80%.

In the case of `Cc1cc(C2=CC(c3cc(Cl)cc(Cl)c3)(C(F)(F)F)OC2=O)ccc1C(=O)NCCC(F)(F)F` (stereo not shown) [Compound E6], the pest or weed control at 200 ppm in assay [1] and in assay [2] was ≥ 80% throughout.

Regarding `Cc1cc(C2=CC(c3cc(Cl)cc(Cl)c3)(C(F)(F)F)OC2=O)ccc1C(=O)NCc1ccccc1` (stereo not shown) [Compound E8], the pest or weed control at 200 ppm in assay [1] is ≥ 80%.

Regarding `Cc1cc(C2=CC(c3cc(Cl)cc(Cl)c3)(C(F)(F)F)OC2=O)ccc1C(=O)NCc1ccccc1F` (stereo not shown) [Compound E9], the pest or weed control at 200 ppm in assay [2] is ≥ 80%. Regarding `COc1ccc(CNC(=O)c2ccc(C3=CC(c4cc(Cl)cc(Cl)c4)(C(F)(F)F)OC3=O)cc2C)cc1` (stereo not shown) [Compound E11], in assay [2], the pest or weed control at 200 ppm was ≥ 80%. In the case of `Cc1cc(C2=CC(c3cc(Cl)cc(Cl)c3)(C(F)(F)F)OC2=O)ccc1C(=O)NCc1ccccn1` (stereo not shown) [Compound E13], the pest or weed control at 200 ppm in assay [1], in assay [2] and in assay [4] was ≥ 80% each time. In the case of `Cc1csc(NC(=O)c2ccc(C3=CC(c4cc(Cl)cc(Cl)c4)(C(F)(F)F)OC3=O)cc2C)n1` (stereo not shown) [Compound E15], the pest or weed control at 200 ppm in assay [1] and in assay [4] was ≥ 80% throughout.

Regarding `Cc1cc(C2=CC(c3cc(Cl)cc(Cl)c3)(C(F)(F)F)OC2=O)ccc1C(=O)NC1CSC1` (stereo not shown) [Compound E17], the pest or weed control at 200 ppm in assay [4] is ≥ 80%.

For `Cc1cc(C2=CC(c3cc(Cl)cc(Cl)c3)(C(F)(F)F)OC2=O)ccc1C(=O)NC1C[S+]([O-])C1` (stereo not shown) [Compound E19], the pest or weed control at 200 ppm in assay [1] was ≥ 80%.
